Test results as given in patent US20130266557A1, “METHODS FOR TREATMENT OF A SARCOMA USING AN EPIMETABOLIC SHIFTER (COENZYME Q10)” (priority 2009, published 2013).

What was measured:
Test in all cases: Induction of early apoptosis by CoQ10
Format in all cases: cell-based
SkBr-3 = tested on: SkBr-3
Description: (§1) The effects of Coenzyme Q10 treatment on a variety of oncogenic and normal cell lines were examined and compared. The sensitivity of cells to Coenzyme Q10 was assessed by monitoring induction of apoptosis. CoQ10 treatment of cells was carried out as described in detail below in the Materials and Methods. Induction of apoptosis was assessed in the treated cells by monitoring indicators of early apoptosis (e.g., Bcl-2 expression, caspase activation and by using annexin V assays) as described below. From these studies, the minimal CoQ10 dosage, e.g., concentration of CoQ10 and time of treatment, required to induce apoptosis in the panel of cell lines was determined.
(§2) Cells were cultured in T-75 flasks with relevant medium supplemented with 10% Fetal Bovine Serum (FBS), 1% PSA (penicillin, streptomycin, amphotericin B) (Invitrogen and Cellgro) in a 37° C. incubator with 5% CO2 levels until 70-80% confluence was reached. To harvest cells for treatment, flasks were primed with 1 mL Trypsin, aspirated, trypsinized with an additional 3 mL, and incubated at 37° C. for 3-5 minutes. Cells were then neutralized with an equal volume of media and the subsequent solution was centrifuged at […] for 8 minutes. The supernatant was aspirated and the cells were resuspended with 8.5 ml of media. A mixture of 500 ul of the resuspension and 9.5 ml of […] was read twice by a coulter counter and the appropriate number of cells to be seeded into each dish was determined. Control and concentration ranging from 0-200 μM groups were examined in triplicate. From a 500 μM CoQ-10 stock solution, serial dilutions were performed to achieve desired experimental concentration in appropriate dishes. Dishes were incubated in a 37° C. incubator with 5% CO2 levels for 0-72 hours depending on cell type and experimental protocol.
(§3) The volume of sample to load per well was determined using the raw mean concentration of protein obtained from the BCA protein assay. Approximately 30-60 μg of protein were loaded for each treatment time point. Proteins were run in triplicate on 12% Tris-HCl ready gels (Bio-Rad) or hand cast gels in 1× running buffer at 85 and 100 volts. Proteins were then transferred onto nitrocellulose paper for an hour at 100 volts, and blocked for another hour in a 5% milk solution. Membranes were placed in primary antibody (1 uL Ab:1000 uL TBST) (Cell Signaling) overnight at […] The following day, membranes were washed three times for ten minutes each with Tris-Buffered Saline Tween-20 (TBST), and secondary antibody (anti-rabbit; 1 uL Ab: 1000 uL TBST) was applied for an hour at […] Membranes were washed again three times for ten minutes with TBST and chemoluminescence using Pico or Femto substrate was completed (Pierce). Membranes were then developed at time intervals that produced the best visual results. After developing, membranes were kept in TBST at […] until Actin levels could be measured.
(§4) Cells were washed twice in PBS10× and resuspended in Binding Buffer (0.1 M HEPES, pH 7.4; 1.4 M NaCl; 25 mM CaCl2). Samples of 100 μl were added to a culture tube with 5 μl of annexin-PE dye or […]. The cells were mixed and incubated without light at room temperature for 15 minutes. After which, 400 μl of 1×Binding Buffer was added to each sample and they were subjected to analysis by flow cytometry.

PC3 = tested on: PC3
Description: as §1, §2, §3, §4

[1] = tested on: Mammary fiboblasts: 184A1 and 184B5; conditions: BREAST: Mammary fiboblasts 184A1 and 184B5
Description: as §1, §2, §3, §4

Hep3B = tested on: Hep3B
Description: as §1, §2, §3, §4

[2] = tested on: Aortic smooth muscle (HASMC); conditions: Heart: Aortic smooth muscle (HASMC)
Description: as §1, §2, §3, §4

HepG2 = tested on: HepG2
Description: as §1, §2, §3, §4

MCF-7 = tested on: MCF-7
Description: as §1, §2, §3, §4

[3] = tested on: SCC, Squamous cell carcinoma
Description: as §1, §2, §3, §4

Melanocytes (Hema, LP) = conditions: SKIN: Melanocytes (Hema, LP)
Description: as §1, §2, §3, §4

MDA MB 468 = tested on: MDA MB 468
Description: as §1, §2, §3, §4

Melanoma (Skmel 2) = tested on: Melanoma (Skmel 2)
Description: as §1, §2, §3, §4

Osteosarcoma (143b) = tested on: Osteosarcoma (143b)
Description: as §1, §2, §3, §4

Melanoma (Skmel 28) = tested on: Melanoma (Skmel 28)
Description: as §1, §2, §3, §4

Fibroblasts (nFib) = conditions: SKIN: Fibroblasts (nFib)
Description: as §1, §2, §3, §4

BT-20 = tested on: BT-20
Description: as §1, §2, §3, §4

ZR-75 = tested on: ZR-75
Description: as §1, §2, §3, §4

PaCa2 = tested on: PaCa2
Description: as §1, §2, §3, §4

[4] = tested on: Keratinocytes (Heka, Hekn); conditions: SKIN: Keratinocytes (Heka, Hekn)
Description: as §1, §2, §3, §4

Ewing's sarcoma (NCI) = tested on: Ewing's sarcoma (NCI)
Description: as §1, §2, §3, §4

**Q.** Which “Indication of Early apoptosis (Bcl-2, annexin V, or caspase activation)” value (shortened to “Indication of Early apoptosis”) (SkBr-3; BREAST: SkBr-3) does the source give for Coenzyme Q10 [CoQ10] here?
**A.** Its value is “Very Strong”.

**Q.** And the “Minimal CoQ10 Concentration required for induction of early apoptosis” value (from here on “Minimal CoQ10 Concentration required”) (SkBr-3; SkBr-3)?
**A.** Its value is 50 µM.

**Q.** What about the “Treatment Time required for induction of early apoptosis” value (“Treatment Time required for induction” for short) (SkBr-3; SkBr-3) of the same substance?
**A.** Its value is 24 h.

**Q.** And the “Minimal CoQ10 Concentration required” value (PC3; PC3)?
**A.** Its value is 25 µM.

**Q.** What about the “Treatment Time required for induction” value (PC3; PC3) of the same substance?
**A.** Its value is 24 h.

**Q.** What about the “Indication of Early apoptosis” value (PC3; PROSTATE: PC3) of the same substance?
**A.** The value was “Very Strong”.

**Q.** And the “Indication of Early apoptosis” value [1]?
**A.** Its value is “None”.

**Q.** And the “Minimal CoQ10 Concentration required” value (Hep3B; Hep3B)?
**A.** The value was 50 µM.

**Q.** And the “Treatment Time required for induction” value (Hep3B; Hep3B)?
**A.** The value was 24 h.

**Q.** And the “Indication of Early apoptosis” value (Hep3B; LIVER: Hep3B)?
**A.** Its value is “Very Strong”.

**Q.** And the “Indication of Early apoptosis” value [2]?
**A.** The value was “None”.

**Q.** What about the “Minimal CoQ10 Concentration required” value (HepG2; HepG2) of the same substance?
**A.** Its value is 50 µM.

**Q.** And the “Treatment Time required for induction” value (HepG2; HepG2)?
**A.** Its value is 24 h.

**Q.** What about the “Indication of Early apoptosis” value (HepG2; LIVER: HepG2) of the same substance?
**A.** The value was “Very Strong”.

**Q.** And the “Indication of Early apoptosis” value (MCF-7; BREAST: MCF-7)?
**A.** The value was “Strong”.

**Q.** And the “Minimal CoQ10 Concentration required” value (MCF-7; MCF-7)?
**A.** The value was 50 µM.

**Q.** And the “Treatment Time required for induction” value (MCF-7; MCF-7)?
**A.** The value was 48 h.

**Q.** What about the “Minimal CoQ10 Concentration required” value ([3]; SCC) of the same substance?
**A.** The value was 25 µM.

**Q.** What about the “Treatment Time required for induction” value ([3]; SCC) of the same substance?
**A.** Its value is 24 h.

**Q.** What about the “Indication of Early apoptosis” value ([3]; SKIN: SCC) of the same substance?
**A.** The value was “Very Strong”.

**Q.** And the “Indication of Early apoptosis” value (Melanocytes (Hema, LP))?
**A.** Its value is “None”.

**Q.** And the “Indication of Early apoptosis” value (MDA MB 468; BREAST: MDA MB 468)?
**A.** Its value is “Strong”.

**Q.** And the “Minimal CoQ10 Concentration required” value (MDA MB 468; MDA MB 468)?
**A.** The value was 100 µM.

**Q.** What about the “Treatment Time required for induction” value (MDA MB 468; MDA MB 468) of the same substance?
**A.** The value was 48 h.

**Q.** What about the “Minimal CoQ10 Concentration required” value (Melanoma (Skmel 2); Melanoma (Skmel 2)) of the same substance?
**A.** Its value is 25 µM.

**Q.** And the “Treatment Time required for induction” value (Melanoma (Skmel 2); Melanoma (Skmel 2))?
**A.** Its value is 24 h.

**Q.** What about the “Indication of Early apoptosis” value (Melanoma (Skmel 2); SKIN: Melanoma (Skmel 2)) of the same substance?
**A.** Its value is “Very Strong”.

**Q.** What about the “Indication of Early apoptosis” value (Osteosarcoma (143b); BONE: Osteosarcoma (143b)) of the same substance?
**A.** The value was “Very Strong”.

**Q.** What about the “Minimal CoQ10 Concentration required” value (Osteosarcoma (143b); Osteosarcoma (143b)) of the same substance?
**A.** The value was 50 µM.

**Q.** What about the “Treatment Time required for induction” value (Osteosarcoma (143b); Osteosarcoma (143b)) of the same substance?
**A.** Its value is 48 h.

**Q.** What about the “Minimal CoQ10 Concentration required” value (Melanoma (Skmel 28); Melanoma (Skmel 28)) of the same substance?
**A.** The value was 20 µM.

**Q.** And the “Treatment Time required for induction” value (Melanoma (Skmel 28); Melanoma (Skmel 28))?
**A.** Its value is 24 h.

**Q.** What about the “Indication of Early apoptosis” value (Melanoma (Skmel 28); SKIN: Melanoma (Skmel 28)) of the same substance?
**A.** The value was “Strong”.

**Q.** And the “Indication of Early apoptosis” value (Fibroblasts (nFib))?
**A.** Its value is “None”.

**Q.** And the “Indication of Early apoptosis” value (BT-20; BREAST: BT-20)?
**A.** Its value is “Strong”.

**Q.** And the “Minimal CoQ10 Concentration required” value (BT-20; BT-20)?
**A.** Its value is 100 µM.

**Q.** And the “Treatment Time required for induction” value (BT-20; BT-20)?
**A.** The value was 48 h.

**Q.** What about the “Indication of Early apoptosis” value (ZR-75; BREAST: ZR-75) of the same substance?
**A.** Its value is “Slight”.

**Q.** And the “Minimal CoQ10 Concentration required” value (ZR-75; ZR-75)?
**A.** The value was 200 µM.

**Q.** And the “Treatment Time required for induction” value (ZR-75; ZR-75)?
**A.** The value was 72 h.

**Q.** And the “Indication of Early apoptosis” value (PaCa2; PANCREAS: PaCa2)?
**A.** Its value is “Very Strong”.

**Q.** And the “Minimal CoQ10 Concentration required” value (PaCa2; PaCa2)?
**A.** The value was 25 µM.

**Q.** And the “Treatment Time required for induction” value (PaCa2; PaCa2)?
**A.** Its value is 24 h.

**Q.** And the “Indication of Early apoptosis” value [4]?
**A.** Its value is “None”.

**Q.** What about the “Minimal CoQ10 Concentration required” value (Ewing's sarcoma (NCI)) of the same substance?
**A.** The value was 5 µM.

**Q.** And the “Treatment Time required for induction” value (Ewing's sarcoma (NCI))?
**A.** The value was 1 h.
